Laboratory results published in US5276170A, “Azido-substituted aromatic amino acids” (The United States of America as represented by the …, priority 1992, dated 1994).
Read-outs that look alike come from different tables or passages of the source.

Key:
[1] = biological target: tyrosine phenol-lyase (Citrobacter freundii, UniProt P31013); experiment: Tyrosine phenol-lyase catalyzed hydrolytic cleavage to ammonium pyruvate and 3-azidophenol; format: biochemical; conditions: as substrate; % of Vmax of L-tyrosine
[2] = tested on: mushroom tyrosinase (sigma); experiment: Mushroom tyrosinase oxidation (UV/visible spectra; dopaquinone production at 480 nm); format: biochemical
Excerpt: Thus, compound 1 is apparently able to bind strongly to mushroom tyrosinase.

[3] = tested on: PC12 cells; experiment: Effect on PC12 cell growth ([3H]thymidine and [3H]leucine incorporation over 5 days); format: cell-based; conditions: presence and absence of NGF
Description: Cell growth was estimated both visually and by the incorporation of [^3 H]thymidine and [^3 H]leucine over a period of 5 days in the presence and absence of nerve growth factor, 50 nanogm/well (NGF-7S was obtained from Boehringer Mannheim Biochemicals, Indianapolis, Ind.; labeled amino acids and thymidine were obtained from New England Nuclear, Boston, Mass.). On day one, compound 1 was added in concentrations ranging from 0.005 to 1.5 mM. Less than 10% inhibition in isotope-incorporation was observed between control and cultures over the five day period.

[4] = tested on: PC12 cells; experiment: Incorporation of tyrosine, leucine and thymidine into PC12 cells; format: cell-based; conditions: for inhibition at 1000 µM: Rattus norvegicus
Description: The incorporation (2 μCi/well) of [^14 CU]tyrosine, [^3 H]thymidine were measured in the presence and absence of 2-azidotyrosine (1.0 mM) over a period of 72 hours. PC12 cells were grown as monolayers in 150 cm^2 tissue culture flasks at 37° C. in 6% CO2 in Dulbecco's modified Eagle's medium supplemented with 7% fetal bovine serum, 7% horse serum, and 100 μg streptomycin and 100 units of penicillin per ml. The cells were split after 3 days and aliquots (2 ml) transferred to 6 well culture plates. 2-Azidotyrosine (final concentration, 1 mM), [^14 CU] tyrosine (2 μCi/well), [^3 H]leucine (2 μCi/well), and [^3 H]thymidine (2 μCi/well) were added in 0.5 ml solutions in cell media. The final volume of each well was adjusted to 3.0 ml. The cultures were incubated in the dark at 37° C. in 6% CO2 for 12, 24, 48 and 72 hrs. Cells were removed and transferred to conical tubes (10 ml), sedimented by centrifugation, and washed 3X with phosphate buffered saline, pH 7.2. The cell sediment was dissolved in 0.5 ml of a solution of 0.5N NAOH containing 1% SDS over a period of 30 min., neutralized with 0.5 ml 0.5N HCl, and the isotope content measured by scintillation spectrometry. The results are expressed at the mean±SEM for 3 wells for each set of conditions.

Chain of tyrosine phenol-lyase (P31013 whole entry, species assumed): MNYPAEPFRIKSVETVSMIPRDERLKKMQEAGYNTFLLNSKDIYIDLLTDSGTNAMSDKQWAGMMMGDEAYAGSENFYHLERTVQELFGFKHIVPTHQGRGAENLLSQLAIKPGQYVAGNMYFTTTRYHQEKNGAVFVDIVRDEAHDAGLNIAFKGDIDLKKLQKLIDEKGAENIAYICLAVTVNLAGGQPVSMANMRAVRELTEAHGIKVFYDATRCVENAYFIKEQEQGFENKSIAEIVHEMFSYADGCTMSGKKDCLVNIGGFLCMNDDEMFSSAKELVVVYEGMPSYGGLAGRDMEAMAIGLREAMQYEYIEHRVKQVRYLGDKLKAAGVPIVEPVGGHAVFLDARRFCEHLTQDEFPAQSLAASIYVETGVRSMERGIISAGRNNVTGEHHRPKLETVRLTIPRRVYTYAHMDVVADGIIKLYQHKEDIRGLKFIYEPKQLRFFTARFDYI

[N-]=[N+]=Nc1cc(O)ccc1C[C@H](N)C(=O)O [compound 1, 2-azido-L-tyrosine]
Vmax (relative to that of L-tyrosine) [1]: 18%
lag period before oxidation of L-tyrosine ([2]; 0.1 mM, equimolar L-tyrosine, dopaquinone at 480 nm): much longer lag periods
hydroxylation by mushroom tyrosinase ([2]; extensive incubation, UV and visible absorption spectra): not hydroxylated
binding to mushroom tyrosinase ([2]; inferred from lag period): bind strongly
inhibition in isotope-incorporation ([3]; 0.005 to 1.5 mM, [3H]thymidine and [3H]leucine, five day period): Less than 10%
growth of PC12 cells ([3]; maximum concentration 1.5 mM, 5 days): did not significantly inhibit
incorporation of [3H]leucine ([4]; 1.0 mM, up to 72 hrs): not significantly different from control
inhibition at 1000 µM ([4]; PC-12, 1.0 mM, 24 hours, read-out: inhibition of [3H]thymidine incorporation): 34%
inhibition at 1000 µM ([4]; PC-12, 1.0 mM, 72 hours, read-out: inhibition of [3H]thymidine incorporation): 24%
inhibition at 1000 µM ([4]; PC-12, 24 h, 1.0 mM, 24 hrs, compared to untreated controls, read-out: inhibition of [14CU]tyrosine incorporation): ~58%
inhibition at 1000 µM ([4]; PC-12, 72 h, 1.0 mM, 72 hrs, compared to untreated controls, read-out: inhibition of [14CU]tyrosine incorporation): ~38%
